From patent US7994185B2, “Benzene sulfonamide thiazole and oxazole compounds” (Glaxo Smith Kline LLC, priority 2008, dated 2011)
Where two headings read alike, the source gives them in different places.

Legend:
[1] = target: T1, BRAFV600E full-length (amino acids 2-766) (Homo sapiens, UniProt P15056, V600E); assay: B-Raf Accelerated MEK ATPase assay (BRAMA); format: biochemical; conditions: categorized
T1 construct: His6-tagged BRAFV600E full-length (amino acids 2-766); His6; made in house; host or cells: baculovirus expression system (insect cells)
Outline: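 Coupled-enzyme readout: ADP generated by MEK-mediated ATP hydrolysis, uncoupled from ERK phosphorylation, is linked to NADH oxidation through pyruvate kinase and lactate dehydrogenase.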

[2] = test system: Human colon tumor cells (Colo205); assay: Cell growth inhibition assay (CellTiter-Glo), Colo205; format: cell-based
Outline: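 Colo205 (and SK-MEL-28) cells in RPMI with 10% FBS were exposed to 10-point 1:3 serial dilutions of compound at 0.2% final DMSO for 3 days at 37 °C. Total ATP, a surrogate for cell number, was read by CellTiter-Glo luminescence, with % growth inhibition relative to DMSO-treated wells.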

[3] = test system: Human melanoma cancer cells (SK-MEL-28); assay: Cell growth inhibition assay (CellTiter-Glo), SK-MEL-28; format: cell-based
[4] = B-Raf Activity, Table 1a, highest pIC50 for the one or more runs
[5] = B-Raf pIC50, Table 1b, later runs, average pIC50 for the one or more runs
[6] = COLO 205, 72 h, Table 2a, 3 days incubation, read-out: Activity in Colo205 Tumor Cells
[7] = COLO 205, Table 2b, later runs, average for the one or more runs, categorized, read-out: IC50 for Colo205
[8] = SK-MEL-28, 72 h, Table 3a, 3 days incubation, read-out: Activity in SK-MEL-28 Tumor Cells
[9] = SK-MEL-28, Table 3b, later runs, average for the one or more runs, categorized, read-out: IC50 for SK-MEL-28
[10] = Table 1b, later runs, average pIC50 for the one or more runs, read-out: B-Raf pIC50 (converted)

T1 sequence (P15056 2-766 V600E): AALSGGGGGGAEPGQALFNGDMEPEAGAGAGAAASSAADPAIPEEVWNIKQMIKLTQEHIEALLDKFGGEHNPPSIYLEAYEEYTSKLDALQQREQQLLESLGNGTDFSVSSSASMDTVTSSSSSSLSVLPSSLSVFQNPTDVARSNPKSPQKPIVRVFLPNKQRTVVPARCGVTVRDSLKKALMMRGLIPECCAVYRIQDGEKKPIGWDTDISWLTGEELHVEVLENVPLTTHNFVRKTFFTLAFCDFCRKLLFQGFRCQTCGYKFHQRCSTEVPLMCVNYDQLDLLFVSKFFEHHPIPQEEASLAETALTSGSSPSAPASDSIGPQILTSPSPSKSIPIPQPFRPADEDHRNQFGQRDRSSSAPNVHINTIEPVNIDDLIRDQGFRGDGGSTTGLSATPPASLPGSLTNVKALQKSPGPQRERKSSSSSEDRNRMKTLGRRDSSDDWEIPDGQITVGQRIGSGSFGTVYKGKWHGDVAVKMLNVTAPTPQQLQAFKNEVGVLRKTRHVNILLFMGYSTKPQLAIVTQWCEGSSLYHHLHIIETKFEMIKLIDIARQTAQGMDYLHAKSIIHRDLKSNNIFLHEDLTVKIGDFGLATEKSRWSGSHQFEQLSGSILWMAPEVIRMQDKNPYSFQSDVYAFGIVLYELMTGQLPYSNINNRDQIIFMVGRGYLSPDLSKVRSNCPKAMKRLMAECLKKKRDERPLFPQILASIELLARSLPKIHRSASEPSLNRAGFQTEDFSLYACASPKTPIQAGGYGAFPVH

For CC(C)c1nc(-c2ccc(F)c(NS(=O)(=O)c3cc(F)ccc3F)c2)c(-c2ccnc(NC3CC(C)(C)N(C)C(C)(C)C3)n2)s1 [Example 132], the IC50 [1, 4] was less than 100 nM, the IC50 [1, 5] was no more than 3.16 nM and the IC50 [2, 6] was 100 to 1000 nM. For the same compound, the IC50 [2, 7] was 100 to 1000 nM, the IC50 [3, 8] was 100 to 1000 nM and the IC50 [3, 9] was 100 to 1000 nM.

CC(C)c1nc(-c2ccc(F)c(NS(=O)(=O)c3cc(F)ccc3F)c2)c(-c2ccnc(N[C@H]3CCCN(C(=O)OC(C)(C)C)C3)n2)s1 [Example 133] showed an IC50 [1, 4] of 100 to 1000 nM, an IC50 [1, 5] of 31.6 to 1000 nM and an IC50 [2, 6] greater than 1000 nM. The IC50 [2, 7] was 1000 to 10000 nM, the IC50 [3, 8] was greater than 1000 nM and the IC50 [3, 9] was 1000 to 10000 nM.

Work on CC(C)CNc1nccc(-c2sc(C(C)(C)C)nc2-c2cccc(NS(=O)(=O)c3c(F)cccc3F)c2F)n1 [Example 134] yielded an IC50 [1, 4] of less than 100 nM, an IC50 [1, 10] of 3.16 to 31.6 nM and an IC50 [2, 6] of 100 to 1000 nM. It also gave an IC50 [2, 7] of 100 to 1000 nM, an IC50 [3, 8] of 100 to 1000 nM and an IC50 [3, 9] of 100 to 1000 nM.

CC(C)Nc1nccc(-c2sc(C(C)(C)C)nc2-c2cccc(NS(=O)(=O)c3c(F)cccc3F)c2F)n1 [Example 135] gave an IC50 [1, 4] of less than 100 nM, an IC50 [1, 5] of no more than 3.16 nM and an IC50 [2, 6] of 100 to 1000 nM. For the same compound, the IC50 [2, 7] was 100 to 1000 nM, the IC50 [3, 8] was less than 100 nM and the IC50 [3, 9] was less than 100 nM.

Compound CC(C)Nc1nccc(-c2sc(N3CCOCC3)nc2-c2cccc(NS(=O)(=O)c3c(F)cccc3F)c2F)n1 [Example 136] has an IC50 [1, 4] of less than 100 nM, an IC50 [1, 10] of 3.16 to 31.6 nM and an IC50 [2, 6] of 100 to 1000 nM. It also gave an IC50 [2, 7] of 100 to 1000 nM, an IC50 [3, 8] of 100 to 1000 nM and an IC50 [3, 9] of 100 to 1000 nM.

Compound CC(C)(C)c1nc(-c2cccc(NS(=O)(=O)c3cc(F)ccc3F)c2F)c(-c2ccnc(NC3CCOCC3)n2)s1 [Example 138] has an IC50 [1, 4] of less than 100 nM, an IC50 [1, 5] of no more than 3.16 nM and an IC50 [2, 6] of less than 100 nM. The IC50 [2, 7] was less than 100 nM, the IC50 [3, 8] was greater than 1000 nM and the IC50 [3, 9] was less than 100 nM.

For CC(C)CNc1nccc(-c2sc(N3CCOCC3)nc2-c2ccc(F)c(NS(=O)(=O)c3cc(F)ccc3F)c2)n1 [Example 139], the IC50 [1, 4] was less than 100 nM, the IC50 [1, 10] was 3.16 to 31.6 nM and the IC50 [2, 6] was less than 100 nM. It also gave an IC50 [2, 7] of 100 to 1000 nM, an IC50 [3, 8] of less than 100 nM and an IC50 [3, 9] of 100 to 1000 nM.

With CC(C)c1nc(-c2ccc(F)c(NS(=O)(=O)c3ccccc3F)c2)c(-c2ccnc(N[C@H]3CC[C@H](NS(C)(=O)=O)CC3)n2)s1 [Example 140] the IC50 [1, 4] was less than 100 nM, the IC50 [1, 10] was 3.16 to 31.6 nM and the IC50 [2, 6] was less than 100 nM. The IC50 [2, 7] was less than 100 nM, the IC50 [3, 8] was less than 100 nM and the IC50 [3, 9] was less than 100 nM.

CC(C)c1nc(-c2ccc(F)c(NS(=O)(=O)c3c(F)cccc3F)c2)c(-c2ccnc(N[C@H]3CC[C@H](NS(C)(=O)=O)CC3)n2)s1 [Example 141] gave an IC50 [1, 4] of less than 100 nM, an IC50 [1, 10] of 3.16 to 31.6 nM and an IC50 [2, 6] of less than 100 nM. For the same compound, the IC50 [2, 7] was less than 100 nM, the IC50 [3, 8] was less than 100 nM and the IC50 [3, 9] was less than 100 nM.

For Nc1nccc(-c2sc(N3CCS(=O)(=O)CC3)nc2-c2cccc(NS(=O)(=O)c3cc(F)ccc3F)c2F)n1 [Example 142], the IC50 [1, 4] was less than 100 nM, the IC50 [1, 5] was no more than 3.16 nM and the IC50 [2, 6] was less than 100 nM. For the same compound, the IC50 [2, 7] was less than 100 nM, the IC50 [3, 8] was less than 100 nM and the IC50 [3, 9] was less than 100 nM.

Compound C[C@@H]1CN(c2nc(-c3cccc(NS(=O)(=O)c4c(F)cccc4F)c3F)c(-c3ccnc(N)n3)s2)C[C@H](C)O1 [Example 143] has an IC50 [1, 4] of less than 100 nM, an IC50 [1, 10] of 3.16 to 31.6 nM and an IC50 [2, 6] of 100 to 1000 nM. The IC50 [2, 7] was 100 to 1000 nM, the IC50 [3, 8] was 100 to 1000 nM and the IC50 [3, 9] was 100 to 1000 nM.

Compound Nc1nccc(-c2sc(C3CCCCC3)nc2-c2cccc(NS(=O)(=O)c3cc(F)ccc3F)c2F)n1 [Example 144] has an IC50 [1, 4] of less than 100 nM, an IC50 [1, 5] of no more than 3.16 nM and an IC50 [2, 6] of less than 100 nM. For the same compound, the IC50 [2, 7] was less than 100 nM, the IC50 [3, 8] was less than 100 nM and the IC50 [3, 9] was less than 100 nM.

Cc1ccc(F)c(S(=O)(=O)Nc2cccc(-c3nc(C(C)(C)C)sc3-c3ccnc(N)n3)c2F)c1 [Example 145] was tested, and the IC50 [1, 4] was less than 100 nM, the IC50 [1, 5] was 31.6 to 1000 nM and the IC50 [2, 6] was 100 to 1000 nM. The IC50 [2, 7] was 100 to 1000 nM, the IC50 [3, 8] was 100 to 1000 nM and the IC50 [3, 9] was 100 to 1000 nM.

In the case of Cc1ccc(S(=O)(=O)Nc2cccc(-c3nc(C(C)(C)C)sc3-c3ccnc(N)n3)c2F)cc1 [Example 146], the IC50 [1, 4] is reported as less than 100 nM, the IC50 [1, 5] is reported as 31.6 to 1000 nM and the IC50 [2, 6] is reported as 100 to 1000 nM. The IC50 [2, 7] was 100 to 1000 nM, the IC50 [3, 8] was 100 to 1000 nM and the IC50 [3, 9] was 100 to 1000 nM.

With Cc1cccc(S(=O)(=O)Nc2cccc(-c3nc(C(C)(C)C)sc3-c3ccnc(N)n3)c2F)c1 [Example 147] the IC50 [1, 4] was less than 100 nM, the IC50 [1, 5] was 31.6 to 1000 nM and the IC50 [2, 6] was 100 to 1000 nM. It also gave an IC50 [2, 7] of 100 to 1000 nM, an IC50 [3, 8] of 100 to 1000 nM and an IC50 [3, 9] of 100 to 1000 nM.

CC(C)c1nc(-c2ccc(F)c(NS(=O)(=O)c3ccco3)c2)c(-c2ccnc(NCCCS(C)(=O)=O)n2)s1 [Example 148] showed an IC50 [1, 4] of less than 100 nM, an IC50 [1, 10] of 3.16 to 31.6 nM and an IC50 [2, 6] greater than 1000 nM. The IC50 [2, 7] was 1000 to 10000 nM, the IC50 [3, 8] was greater than 1000 nM and the IC50 [3, 9] was 1000 to 10000 nM.
